Measured values: ChEMBL document CHEMBL1153777, “Substituted benzothiadizine inhibitors of Hepatitis C virus polymerase” (Bioorg Med Chem Lett, 2009)

Experiments:
[1] = tested on: Hepatitis C virus; assay: Inhibition of HCV1b Cdelta-21-truncated NS5B by enzymatic assay; format: functional, Hepatitis C virus subtype 1b
[2] = tested on: Hepatitis C virus; assay: Antiviral activity against HCV 1b after 72 hrs by replicon assay; format: functional, organism-based, Hepacivirus hominis; conditions: genotype 1b
[3] = tested on: Hepatitis C virus; assay: Antiviral activity against HCV 1b after 72 hrs by replicon assay in presence of HSA and AAG; format: functional, organism-based, Hepacivirus hominis; conditions: genotype 1b
[4] = Half life in rat at 4 mg/kg, po and 4 mg/kg, iv; format: ADME, organism-based; conditions: in vivo
[5] = Bioavailability in rat at 4 mg/kg, po and 4 mg/kg, iv; format: ADME, organism-based; conditions: in vivo
[6] = biological target: Cytochrome P450 2C9 (Homo sapiens, UniProt P11712); assay: Inhibition of CYP2C9; format: ADME
Sequence of Cytochrome P450 2C9 (P11712 whole entry): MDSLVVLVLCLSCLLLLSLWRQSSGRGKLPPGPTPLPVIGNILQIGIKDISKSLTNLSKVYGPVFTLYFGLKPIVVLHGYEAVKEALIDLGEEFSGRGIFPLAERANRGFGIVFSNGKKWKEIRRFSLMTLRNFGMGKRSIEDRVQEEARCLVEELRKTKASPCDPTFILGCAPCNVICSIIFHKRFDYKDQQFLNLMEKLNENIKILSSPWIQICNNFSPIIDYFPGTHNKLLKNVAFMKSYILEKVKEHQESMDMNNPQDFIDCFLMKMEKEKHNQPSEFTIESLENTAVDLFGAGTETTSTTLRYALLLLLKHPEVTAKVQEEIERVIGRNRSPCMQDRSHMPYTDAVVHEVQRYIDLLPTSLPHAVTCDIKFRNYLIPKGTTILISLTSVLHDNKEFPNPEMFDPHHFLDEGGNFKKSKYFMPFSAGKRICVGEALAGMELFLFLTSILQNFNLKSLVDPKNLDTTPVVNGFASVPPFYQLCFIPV

[7] = organism: Homo sapiens; assay: Protein binding in human plasma by equilibrium dialysis; conditions: read-out: PPB (converted)

SMILES	IC50 [1] [nM]	IC50 [2] [nM]	IC50 [3] [nM]	half-life [4] [h]	bioavailability [5] [%]	IC50 [6] [nM]	fraction unbound [7]
NC(=O)COc1ccc2c(c1)S(=O)(=O)NC(c1c(O)c3cc(F)ccc3n(CCC3CC3)c1=O)=N2	< 5	2	1480	1	33	5400	0.001
C[C@H](Oc1ccc2c(c1)S(=O)(=O)N=C(c1c(O)c3cc(F)ccc3n(CCC3CC3)c1=O)N2)C(N)=O	12	4	50000	–	–	–	–
O=C(O)COc1ccc2c(c1)S(=O)(=O)N=C(c1c(O)c3cc(F)ccc3n(CCC3CC3)c1=O)N2	< 5	2300	–	–	–	–	–
COc1ccc2c(c1)S(=O)(=O)N=C(c1c(O)c3cc(F)ccc3n(CCC3CC3)c1=O)N2	24	342	> 50000	–	–	–	–
CC(C)(Oc1ccc2c(c1)S(=O)(=O)N=C(c1c(O)c3cc(F)ccc3n(CCC3CC3)c1=O)N2)C(N)=O	9	272	5360	–	–	–	–
O=c1c(C2=Nc3ccccc3S(=O)(=O)N2)c(O)c2cc(F)ccc2n1CCC1CC1	–	38	24500	3	44	840	–
CC(C)(Oc1ccc2c(c1)S(=O)(=O)N=C(c1c(O)c3cc(F)ccc3n(CCC3CC3)c1=O)N2)C(=O)O	22	3740	–	–	–	–	–
NC(=O)CCc1ccc2c(c1)S(=O)(=O)N=C(c1c(O)c3cc(F)ccc3n(CCC3CC3)c1=O)N2	5	208	> 50000	–	–	–	–
NC(=O)/C=C/c1ccc2c(c1)S(=O)(=O)N=C(c1c(O)c3cc(F)ccc3n(CCC3CC3)c1=O)N2	202	39	50000	–	–	–	–
O=c1c(C2=NS(=O)(=O)c3cc(OCn4cnnn4)ccc3N2)c(O)c2cc(F)ccc2n1CCC1CC1	6	2000	–	–	–	–	–
O=c1c(C2=NS(=O)(=O)c3cc(CO)ccc3N2)c(O)c2cc(F)ccc2n1CCC1CC1	17	233	–	–	–	–	–
O=c1c(C2=NS(=O)(=O)c3cc(O)ccc3N2)c(O)c2cc(F)ccc2n1CCC1CC1	< 5	57	50000	–	–	–	–
CNC(=O)COc1ccc2c(c1)S(=O)(=O)N=C(c1c(O)c3cc(F)ccc3n(CCC3CC3)c1=O)N2	< 5	9	4740	–	–	–	–
N#CCOc1ccc2c(c1)S(=O)(=O)N=C(c1c(O)c3cc(F)ccc3n(CCC3CC3)c1=O)N2	< 5	8	2390	–	–	–	–
CN(C)C(=O)COc1ccc2c(c1)S(=O)(=O)N=C(c1c(O)c3cc(F)ccc3n(CCC3CC3)c1=O)N2	12	211	–	–	–	–	–
C[C@@H](Oc1ccc2c(c1)S(=O)(=O)N=C(c1c(O)c3cc(F)ccc3n(CCC3CC3)c1=O)N2)C(N)=O	< 5	3	1020	0.7	35	1700	0.002
NC(=O)OCc1ccc2c(c1)S(=O)(=O)N=C(c1c(O)c3cc(F)ccc3n(CCC3CC3)c1=O)N2	36	48	–	–	–	–	–

The remaining lines, values ahead:

IC50 [1] [nM]	IC50 [2] [nM]	IC50 [3] [nM]	half-life [4] [h]	bioavailability [5] [%]	IC50 [6] [nM]	fraction unbound [7]	SMILES
238	> 20000	–	–	–	–	–	CC(C)CCn1c(=O)c(C2=NS(=O)(=O)c3cc([N+](=O)[O-])ccc3N2)c(O)c2ccccc21
45	> 20000	–	–	–	–	–	CC(C)CCn1c(=O)c(C2=NS(=O)(=O)c3cc(C(=O)O)ccc3N2)c(O)c2ccccc21
50	1780	–	–	–	–	–	Cc1ccc2c(c1)S(=O)(=O)N=C(c1c(O)c3ccccc3n(CCC(C)C)c1=O)N2
5	29	8000	–	–	–	–	CC(C)CCn1c(=O)c(C2=NS(=O)(=O)c3cc(CC#N)ccc3N2)c(O)c2cc(F)ccc21
> 10000	–	–	–	–	–	–	CC(C)CCn1c(=O)c(C2=NS(=O)(=O)c3cc(I)ccc3N2)c(O)c2ccccc21
142	568	–	–	–	–	–	CC(C)CCn1c(=O)c(C2=NS(=O)(=O)c3cc(CCN)ccc3N2)c(O)c2ccccc21
18	13	3100	–	–	–	–	CC(C)CCn1c(=O)c(C2=NS(=O)(=O)c3cc(CC(N)=O)ccc3N2)c(O)c2cc(F)ccc21
30	> 20000	–	–	–	–	–	CC(C)CCn1c(=O)c(C2=NS(=O)(=O)c3cc(O)ccc3N2)c(O)c2ccccc21
142	1250	–	–	–	–	–	CC(C)CCn1c(=O)c(C2=NS(=O)(=O)c3cc(N(C)C)ccc3N2)c(O)c2ccccc21
55	1390	–	–	–	–	–	COc1ccc2c(c1)S(=O)(=O)N=C(c1c(O)c3ccccc3n(CCC(C)C)c1=O)N2
6	383	–	–	–	–	–	CC(C)CCn1c(=O)c(C2=NS(=O)(=O)c3cc(C(N)=O)ccc3N2)c(O)c2ccccc21
23	815	–	–	–	–	–	COC(=O)Cc1ccc2c(c1)S(=O)(=O)N=C(c1c(O)c3ccccc3n(CCC(C)C)c1=O)N2
7	81	–	–	–	–	–	CC(C)CCn1c(=O)c(C2=NS(=O)(=O)c3cc(OCC#N)ccc3N2)c(O)c2ccccc21
76	2320	> 50000	–	–	–	–	CC(C)CCn1c(=O)c(C2=NS(=O)(=O)c3cc(Cl)ccc3N2)c(O)c2ccccc21
57	486	–	–	–	–	–	CC(C)CCn1c(=O)c(C2=NS(=O)(=O)c3cc(C#N)ccc3N2)c(O)c2ccccc21
8	1600	–	–	–	–	–	CC(C)CCn1c(=O)c(C2=NS(=O)(=O)c3cc(CC(=O)O)ccc3N2)c(O)c2ccccc21
65	2620	–	–	–	–	–	COC(=O)c1ccc2c(c1)S(=O)(=O)N=C(c1c(O)c3ccccc3n(CCC(C)C)c1=O)N2
102	> 20000	–	–	–	–	–	CC(C)CCn1c(=O)c(C2=NS(=O)(=O)c3cc(C(=O)N(C)C)ccc3N2)c(O)c2ccccc21
127	5200	–	–	–	–	–	CC(=O)c1ccc2c(c1)S(=O)(=O)N=C(c1c(O)c3ccccc3n(CCC(C)C)c1=O)N2
173	5140	–	–	–	–	–	CC(C)CCn1c(=O)c(C2=NS(=O)(=O)c3cc(Br)ccc3N2)c(O)c2ccccc21
13	218	45000	–	–	–	–	CC(C)CCn1c(=O)c(C2=NS(=O)(=O)c3cc(N)ccc3N2)c(O)c2ccccc21
685	–	–	–	–	–	–	CC(C)CCn1c(=O)c(C2=NS(=O)(=O)c3cc(CCN(C)C)ccc3N2)c(O)c2ccccc21
6	15	2650	–	–	–	–	CC(C)CCn1c(=O)c(C2=NS(=O)(=O)c3cc(CC(N)=O)ccc3N2)c(O)c2ccccc21
26	334	–	–	–	–	–	CC(C)CCn1c(=O)c(C2=NS(=O)(=O)c3cc(F)ccc3N2)c(O)c2ccccc21
